A value given as a limit tells only on which side of the number the result lay.

The test system of this experiment is Neisseria gonorrhoeae. The experiment is described as follows: EC50 determination: plate-based broth growth assay (absorbance at 600 nm) of Neisseria gonorrhoeae. The conditions noted are these: absorbance 600 nm after 20 hours at 37° C./5% CO2, read-out: IC50 (Inhibitory concentration) against Neisseria gonorrhoeae. Type of experiment: cell-based. As for the experimental part:
Actively growing Neisseria gonorrhoeae on GC agar (based on; Spence et. al. (2008): Curr. Protoc. Microbiol. 8:4A.1.1-4A.1.26) plates are harvested and transferred to GC broth (based on; Spence et al (2008): Curr. Protoc. Microbiol. 8:4A.1.1-4A.1.26) to generate a liquid stock. This culture is allowed to establish and grow to mid-log phase (at 37° C./5% CO2), finally this culture is diluted (˜10^5 cells/ml) to generate a seed inoculum to establish plate-based broth assays. EC50 values were determined by assaying growth (absorbance read at 600 nm, after 20 hours at 37° C./5% CO2) of Neisseria gonorrhoeae across a 10-point dilution series of the test compound. The EC50 value is determined from transformed data to identify the concentration of compound giving a 50% response relative to control samples (no compound).
Take `O=C(NC1CC1)c1csc(Nc2nc3cc(C(F)(F)F)ccc3o2)n1` [Example 1, N-Cyclopropyl-2-((5-(trifluoromethyl)benzo[d]oxazol-2-yl)amino)thiazole-4-carboxamide]: the IC50 was at most 1000 nM.
The value for `CNC(=O)c1csc(Nc2nc3cc(C(F)(F)F)ccc3o2)n1` [Example 2, N-Methyl-2-((5-(trifluoromethyl)benzo[d]oxazol-2-yl)amino)thiazole-4-carboxamide] was at most 1000 nM; that for `CCNC(=O)c1csc(Nc2nc3cc(C(F)(F)F)ccc3o2)n1` [Example 3, N-Ethyl-2-((5-(trifluoromethyl)benzo[d]oxazol-2-yl)amino)thiazole-4-carboxamide] was at most 1000 nM.
Take `CC(C)NC(=O)c1csc(Nc2nc3cc(C(F)(F)F)ccc3o2)n1` [Example 4, N-Isopropyl-2-((5-(trifluoromethyl)benzo[d]oxazol-2-yl)amino)thiazole-4-carboxamide]: the IC50 was at most 1000 nM.
On to `O=C(Nc1ccccc1)c1csc(Nc2nc3cc(C(F)(F)F)ccc3o2)n1` [Example 5, N-Phenyl-2-((5-(trifluoromethyl)benzo[d]oxazol-2-yl)amino)thiazole-4-carboxamide], for which the IC50 is at most 1000 nM.
Take `FC(F)(F)c1ccc2oc(Nc3nccs3)nc2c1` [Example 6, N-(Thiazol-2-yl)-5-(trifluoromethyl)benzo[d]oxazol-2-amine]: the IC50 was at most 1000 nM.
In the case of `Cc1csc(Nc2nc3cc(C(F)(F)F)ccc3o2)n1` [Example 7, N-(4-Methylthiazol-2-yl)-5-(trifluoromethyl)benzo[d]oxazol-2-amine], the IC50 was at most 1000 nM.
For `CCOC(=O)c1csc(Nc2nc3cc(C(F)(F)F)ccc3o2)n1` [Example 8, Ethyl 2-((5-(trifluoromethyl)benzo[d]oxazol-2-yl)amino)thiazole-4-carboxylate], the IC50 was at most 1000 nM.
Then `O=C(Nc1cccc(F)c1)c1csc(Nc2nc3cc(C(F)(F)F)ccc3o2)n1` [Example 9, N-(3-Fluorophenyl)-2-((5-(trifluoromethyl)benzo[d]oxazol-2-yl)amino)thiazole-4-carboxamide], with at most 1000 nM; and `O=C(Nc1cccc(Cl)c1)c1csc(Nc2nc3cc(C(F)(F)F)ccc3o2)n1` [Example 10, N-(3-Chlorophenyl)-2-((5-(trifluoromethyl)benzo[d]oxazol-2-yl)amino)thiazole-4-carboxamide], with at most 1000 nM; and `FC(F)(F)c1ccc2oc(Nc3ccon3)nc2c1` [Example 11, N-(Isoxazol-3-yl)-5-(trifluoromethyl)benzo[d]oxazol-2-amine], with at most 1000 nM.
Then `Cn1cc(Nc2nc3cc(C(F)(F)F)ccc3o2)nn1` [Example 12, N-(1-Methyl-1H-1,2,3-triazol-4-yl)-5-(trifluoromethyl)benzo[d]oxazol-2-amine], with at most 10000 nM.
Take `CC(C)(C)c1csc(Nc2nc3cc(C(F)(F)F)ccc3o2)n1` [Example 13, N-(4-(tert-butyl)thiazol-2-yl)-5-(trifluoromethyl)benzo[d]oxazol-2-amine]: the IC50 is at most 10000 nM.
The value for `FC(F)(F)c1ccc2oc(Nc3nncs3)nc2c1` [Example 14, N-(1,3,4-Thiadiazol-2-yl)-5-(trifluoromethyl)benzo[d]oxazol-2-amine] was at most 1000 nM; that for `O=C(NC1CC1)c1csc(Nc2nc3ccccc3o2)n1` [Example 15, 2-(Benzo[d]oxazol-2-ylamino)-N-cyclopropylthiazole-4-carboxamide] was at most 1000 nM.
On to `Cc1ccc2oc(Nc3nc(C(=O)NC4CC4)cs3)nc2c1` [Example 16, N-Cyclopropyl-2-((5-methylbenzo[d]oxazol-2-yl)amino)thiazole-4-carboxamide], for which the IC50 was at most 1000 nM.
Then `O=C(NC1CC1)c1csc(Nc2nc3cc(Cl)ccc3o2)n1` [Example 17, 2-((5-Chlorobenzo[d]oxazol-2-yl)amino)-N-cyclopropylthiazole-4-carboxamide], with at most 1000 nM.
In the case of `O=C(NC1CC1)c1csc(Nc2nc3cc(F)ccc3o2)n1` [Example 18, N-Cyclopropyl-2-((5-fluorobenzo[d]oxazol-2-yl)amino)thiazole-4-carboxamide], the IC50 is at most 1000 nM.
The value for `O=C(NC1CC1)c1csc(Nc2nc3ccc(F)cc3o2)n1` [Example 19, N-Cyclopropyl-2-((6-fluorobenzo[d]oxazol-2-yl)amino)thiazole-4-carboxamide] was at most 1000 nM; that for `O=C(NC1CC1)c1csc(Nc2nc3ccc(Cl)cc3o2)n1` [Example 20, 2-((6-Chlorobenzo[d]oxazol-2-yl)amino)-N-cyclopropylthiazole-4-carboxamide] was at most 100 nM.
Then `NC(=O)c1csc(Nc2nc3cc(C(F)(F)F)ccc3o2)n1` [Example 21, 2-((5-(Trifluoromethyl)benzo[d]oxazol-2-yl)amino)thiazole-4-carboxamide], with at most 1000 nM; and `Cc1nnc(Nc2nc3cc(C(F)(F)F)ccc3o2)o1` [Example 22, N-(5-Methyl-1,3,4-oxadiazol-2-yl)-5-(trifluoromethyl)benzo[d]oxazol-2-amine], with at most 1000 nM; and `FC(F)(F)c1ccc2oc(Nc3ncns3)nc2c1` [Example 23, N-(1,2,4-Thiadiazol-5-yl)-5-(trifluoromethyl)benzo[d]oxazol-2-amine], with at most 1000 nM.
Then `O=C(NC1CC1)c1coc(Nc2nc3cc(C(F)(F)F)ccc3o2)n1` [Example 24, N-Cyclopropyl-2-((5-(trifluoromethyl)benzo[d]oxazol-2-yl)amino)oxazole-4-carboxamide], with at most 1000 nM.
Take `Cc1sc(Nc2nc3cc(C(F)(F)F)ccc3o2)nc1C(=O)NC1CC1` [Example 25, N-Cyclopropyl-5-methyl-2-((5-(trifluoromethyl)benzo[d]oxazol-2-yl)amino)thiazole-4-carboxamide]: the IC50 is at most 1000 nM.
The value for `O=C(NC1CC1)c1csc(Nc2nc3ccc(C(F)(F)F)cc3o2)n1` [Example 26, N-Cyclopropyl-2-((6-(trifluoromethyl)benzo[d]oxazol-2-yl)amino)thiazole-4-carboxamide] was at most 100 nM; that for `FC(F)(F)c1ccc2nc(Nc3ncc(N4CCOCC4)s3)oc2c1` [Example 27, N-(5-Morpholinothiazol-2-yl)-6-(trifluoromethyl)benzo[d]oxazol-2-amine] was at most 1000 nM.
The value for `FC(F)(F)c1ccc2nc(Nc3ncc(N4CCCCC4)s3)oc2c1` [Example 28, N-(5-(Piperidin-1-yl)thiazol-2-yl)-6-(trifluoromethyl)benzo[d]oxazol-2-amine] was at most 1000 nM; that for `O=C(NC1CC1)c1nnc(Nc2nc3ccc(C(F)(F)F)cc3o2)o1` [Example 30, N-Cyclopropyl-5-((6-(trifluoromethyl)benzo[d]oxazol-2-yl)amino)-1,3,4-oxadiazol-2-carboxamide] was at most 100000 nM.
On to `Cc1noc(Nc2nc3cc(C(F)(F)F)ccc3o2)n1` [Example 31, N-(3-Methyl-1,2,4-oxadiazol-5-yl)-5-(trifluoromethyl)benzo[d]oxazol-2-amine], for which the IC50 is at most 1000 nM.
For `CN1CCN(c2cnc(Nc3nc4cc(C(F)(F)F)ccc4o3)s2)CC1` [Example 32, N-(5-(4-Methylpiperazin-1-yl)thiazol-2-yl)-5-(trifluoromethyl)benzo[d]oxazol-2-amine], the IC50 is at most 1000 nM.

Values taken from patent US20190194179A1, “ANTIBIOTIC COMPOUNDS” (DISCUVA LTD., priority 2016, published 2019).
